Experimental data taken from patent US8158672B2, “Fluoroalkoxy-substituted 1,3-dihydro-isoindolyl compounds and their pharmaceutical uses” (Celgene Corporation, priority 2002, dated 2012).

SMILES	melting point [°C]
CC(=O)Nc1cccc2c1C(=O)N(C(CC(=O)N(C)C)c1ccc(OC(F)F)c(OCC3CC3)c1)C2=O (centres unmarked) [Example 5, 3-(4-Acetylamino-1,3-dioxo-1,3-dihydro-isoindol-2-yl)-3-(3-cyclopropylmethoxy-4-difluoromethoxy-phenyl)-N,N -dimethyl-propionamide]	80 to 82
CC(=O)Nc1cccc2c1C(=O)N(C(CC(N)=O)c1ccc(OC(F)F)c(OCC3CC3)c1)C2=O (centres unmarked) [Example 6, 3-(4-Acetylamino-1,3-dioxo-1,3-dihydro-isoindol-2-yl) -3-(3 cyclopropylmethoxy-4-difluoromethoxy-phenyl) -propionamide]	77 to 79
O=C(CC(c1ccc(OC(F)F)c(OCC2CC2)c1)N1C(=O)c2ccccc2C1=O)NO (centres unmarked) [Example 8, 3-(3-Cyclopropylmethoxy-4-difluoromethoxy-phenyl) -3-(1,3-dioxo-1,3-dihydro-isoindol-2-yl)-N-hydroxy-propionamide]	129 to 131
CN(C)C(=O)CC(c1ccc(OC(F)F)c(OCC2CC2)c1)N1Cc2cccc(N)c2C1=O (centres unmarked) [Example 14, 3-(7-Amino-1-oxo-1,3-dihydro-isoindol-2-yl)-3-(3-cyclopropylmethoxy-4-difluoromethoxy-phenyl)-N,N-dimethyl-propionamide]	70 to 72
CCOc1cc(C(CC(=O)O)N2Cc3cccc(NC(C)=O)c3C2=O)ccc1OC(F)F (centres unmarked) [Example 22, 3-(7-Acetylamino-1-oxo-1,3-dihydro-isoindol-2-yl)-3-(4-difluoromethoxy-3-ethoxy-phenyl)-propionic acid]	105 to 107
CCOc1cc(C(CC(=O)N(C)C)N2Cc3cccc(NC(C)=O)c3C2=O)ccc1OC(F)F (centres unmarked) [Example 28, 3-(7-Acetylamino-1-oxo-1,3-dihydro-isoindol-2-yl)-3-(4-difluoromethoxy-3-ethoxy-phenyl)-N,N-dimethyl-propionamide]	141 to 143
CCOc1cc(C(CC(=O)NO)N2Cc3cccc(NC(C)=O)c3C2=O)ccc1OC(F)F (centres unmarked) [Example 29, 3-(7-Acetylamino-1-oxo-1,3-dihydro-isoindol-2-yl)-3-(4-difluoromethoxy-3-ethoxy-phenyl)-N-hydroxy-propionamide]	121 to 123
CCOc1cc(C(CC(=O)O)N2C(=O)c3cccc(NC(C)=O)c3C2=O)ccc1OC(F)F (centres unmarked) [Example 30, 3-(4-Acetylamino-1,3-dioxo-1,3-dihydro-isoindol-2-yl)-3-(4-difluoromethoxy-3-ethoxy-phenyl)-propionic acid]	89 to 91
CCOc1cc(C(CC(N)=O)N2C(=O)c3cccc(NC(C)=O)c3C2=O)ccc1OC(F)F (centres unmarked) [Example 31, 3-(4-Acetylamino-1,3-dioxo-1,3-dihydro-isoindol-2-yl)-3-(4-difluoromethoxy-3-ethoxy-phenyl)-propionamide]	178 to 180
CCOc1cc(C(CC(=O)N(C)C)N2C(=O)c3cccc(NC(C)=O)c3C2=O)ccc1OC(F)F (centres unmarked) [Example 32, 3-(4-Acetylamino-1,3-dioxo-1,3-dihydro-isoindol-2-yl)-3-(4-difluoromethoxy-3-ethoxy-phenyl)-N,N-dimethyl-propionamide]	163 to 165
CCOc1cc(C(CC(=O)NO)N2C(=O)c3cccc(NC(C)=O)c3C2=O)ccc1OC(F)F (centres unmarked) [Example 33, 3-(4-Acetylamino-1,3-dioxo-1,3-dihydro-isoindol-2-yl)-3-(4-difluoromethoxy-3-ethoxy-phenyl)-N-hydroxy-propionamide]	148 to 150
CCOc1cc(C(CS(C)(=O)=O)N2C(=O)c3cccc(NC(C)=O)c3C2=O)ccc1OC(F)F (centres unmarked) [Example 36]	118 to 120
CCOc1cc(C(CC(=O)N2CCOCC2)N2C(=O)c3cccc(NC(C)=O)c3C2=O)ccc1OC(F)F (centres unmarked) [Example 38, N-{2-[1-(4-Difluoromethoxy-3-ethoxy-phenyl)-3-morpholin-4-yl-3-oxo-propyl]-1,3-dioxo-2,3-dihydro-1H-isoindol-4-yl}-acetamide]	109 to 111
CCOc1cc(C(CC(=O)N2CCOCC2)N2Cc3cccc(NC(C)=O)c3C2=O)ccc1OC(F)F (centres unmarked) [Example 39, N-{2-[1-(4-Difluoromethoxy-3-ethoxy-phenyl)-3-morpholin-4-yl-3-oxo-propyl]-3-oxo-2,3-dihydro-1H-isoindol-4-yl}-acetamide]	164 to 166
CC(=O)Nc1cccc2c1C(=O)N(C(CC(=O)N(C)C)c1ccc(OC(F)F)c(OC(F)F)c1)C2=O (centres unmarked) [Example 40, 3-(4-Acetylamino-1,3-dioxo-1,3-dihydro-isoindol-2-yl)-3-(3,4-bis-difluoromethoxy-phenyl)-N,N-dimethyl-propionamide]	83 to 85
CN(C)C(=O)CC(c1ccc(OC(F)F)c(OC(F)F)c1)N1Cc2cccc(NC(=O)C3CC3)c2C1=O (centres unmarked) [Example 42, Cyclopropanecarboxylic acid {2-[1-(3,4-bis-difluoromethoxy-phenyl)-2-dimethylcarbamoyl-ethyl]-3-oxo-2,3-dihydro-1H-isoindol-4-yl}-amide]	158 to 160
O=C(CC(c1ccc(OC(F)F)c(OC(F)F)c1)N1Cc2cccc(NC(=O)C3CC3)c2C1=O)NO (centres unmarked) [Example 44, Cyclopropanecarboxylic acid {2-[1-(3,4-bis-difluoromethoxy-phenyl)-2-hydroxycarbamoyl-ethyl]-3-oxo-2,3-dihydro-1H-isoindol-4-yl}-amide]	191 to 193
O=C(O)CC(c1ccc(OC(F)F)c(OC(F)F)c1)N1Cc2cccc(NC(=O)C3CC3)c2C1=O (centres unmarked) [Example 45, 3-(3,4-Bis-difluoromethoxy-phenyl)-3-[7-(cyclopropanecarbonyl-amino)-1-oxo-1,3-dihydro-isoindol-2-yl]-propionic acid]	94 to 96

Now from value to molecule:

melting point [°C]	SMILES
179 to 181	CCOc1cc(C(CC(N)=O)N2Cc3cccc(NC(=O)C4CC4)c3C2=O)ccc1OC(F)F (centres unmarked) [Example 24, Cyclopropanecarboxylic acid {2-[2-carbamoyl-1-(4-difluoromethoxy-3-ethoxy-phenyl)-ethyl]-3-oxo-2,3-dihydro-1H -isoindol-4-yl}-amide]
135 to 137	CCOc1cc(C(CC(=O)N(C)C)N2Cc3cccc(NC(=O)C4CC4)c3C2=O)ccc1OC(F)F (centres unmarked) [Example 25, Cyclopropanecarboxylic acid {2-[1-(4-difluoromethoxy-3-ethoxy-phenyl)-2-dimethylcarbamoyl-ethyl]-3-oxo-2,3-dihydro-1H-isoindol-4-yl}-amide]
116 to 118	CCOc1cc(C(CC(=O)NO)N2Cc3cccc(NC(=O)C4CC4)c3C2=O)ccc1OC(F)F (centres unmarked) [Example 26, Cyclopropanecarboxylic acid {2-[1-(4-difluoromethoxy-3-ethoxy-phenyl)-2-hydroxycarbamoyl-ethyl]-3-oxo-2,3-dihydro-1H-isoindol-4-yl}-amide]
129 to 131	CCOc1cc(C(CC(N)=O)N2Cc3cccc(NC(C)=O)c3C2=O)ccc1OC(F)F (centres unmarked) [Example 27, 3-(7-Acetylamino-1-oxo-1,3-dihydro-isoindol-2-yl)-3-(4-difluoromethoxy-3-ethoxy-phenyl)-propionamide]
115 to 117	CCOc1cc(C(CS(C)(=O)=O)N2Cc3cccc(NC(=O)C4CC4)c3C2=O)ccc1OC(F)F (centres unmarked) [Example 35, Cyclopropanecarboxylic acid {2-[1-(4-difluoromethoxy-3-ethoxy-phenyl)-2-methanesulfonyl-ethyl]-3-oxo-2,3-dihydro-1H-isoindol-4-yl}-amide]
198 to 200	CCOc1cc(C(CC(N)=O)N2Cc3c(Cl)ccc(NC(=O)C4CC4)c3C2=O)ccc1OC(F)F (centres unmarked) [Example 37, Cyclopropanecarboxylic acid {2-[2-carbamoyl-1-(4-difluoromethoxy-3-ethoxy-phenyl)-ethyl]-7-chloro-3-oxo-2,3-dihydro-1H-isoindol-4-yl}-amide]
175 to 177	COC(=O)CC(c1ccc(OC(F)F)c(OC(F)F)c1)N1Cc2c(Cl)ccc(NC(=O)C3CC3)c2C1=O (centres unmarked) [Example 41, 3-(3,4-Bis-difluoromethoxy-phenyl)-3-[4-chloro-7-(cyclopropanecarbonyl-amino)-1-oxo-1,3-dihydro-isoindol-2-yl]-propionic acid methyl ester]
198 to 200	NC(=O)CC(c1ccc(OC(F)F)c(OC(F)F)c1)N1Cc2cccc(NC(=O)C3CC3)c2C1=O (centres unmarked) [Example 43, Cyclopropanecarboxylic acid {2-[1-(3,4-bis-difluoromethoxy-phenyl)-2-carbamoyl-ethyl]-3-oxo-2,3-dihydro-1H-isoindol-4-yl}-amide]
